Assay results reported in patent US20120157419A1, “METHODS AND COMPOSITIONS FOR TREATING ALZHEIMER'S DISEASE” (priority 2009, published 2012).

Columns and labels:
[1] = test system: human astrocyte cells (ccf-sttg1 cell line); experiment: Cholesterol efflux from a human astrocyte cell line; type: cell-based; details: for Concentration evoking maximal cholesterol efflux / Concentration of maximal effect on cholesterol efflux: 20 hr incubation, [3H]cholesterol-loaded ccf-sttg1 cells
Experimental: Human astrocyte cells (1×10^6 cells/ml; ccf-sttg1 cell line) were incubated in 24 plates for 24-48 hours in 10% FCS (Fetal Calf Serum) in DMEM (Dulbecco's modified Eagle's Media) in a humidified 37° C. incubator in the presence of 7.5% CO2. After the incubation time Cholesterol loading was performed by incubating the cells for 20 hr with DMEM supplemented with 30 μg/ml cholesterol, 0.5 μCi/ml of [^3H]cholesterol and 0.2% fatty-acid-free BSA (Bovine Serum Albumin). After incubation, the cells were washed four times with PBS (Phosphate Buffered Saline) containing 0.2% fatty-acid-free BSA. Cells were then incubated for 20 hr in a humidified incubator at 37° C. in the presence of 10% CO2, with or without apolipoproteins (ApoE) or FABACs (Aramchol or Steamchol) at several concentrations. The medium was collected and centrifuged at 12000 g for 5 min to remove cellular debris. The aliquots of the supernatant were taken to count the effluxed [^3H]cholesterol. The remaining cell-associated [^3H]cholesterol was determined after extraction for at least 30 min with propan-2-ol. Efflux was determined in the presence, or absence, of apolipoproteins or FABACs. FABACs were dissolved in ethanol and added to the medium at the concentrations indicated. The amount of [^3H]cholesterol in the medium and cellular extract was quantified by liquid-scintillation counting. The radioactivity released into the medium was expressed as the fraction of the total radioactive cholesterol that was present in the supernatant of each well. The percentage efflux was calculated by dividing the radioactive counts in the efflux medium by the sum of the counts in the medium and cell extract.
Astrocyte brain cells (ccf-sttg1 cell line) were maintained under the same conditions as above (Example 3) and the effect of the 2 physiological stimulants ApoE3 and ApoE4 was tested. […] FABACs evoked a maximal cholesterol efflux at the concentrations of 2 microgram/ml (Steamchol) and 5 microgram/ml (Aramchol) while the apolipoproteins reached a maximal effect at the concentration of 10 microgram/ml. Furthermore, at the above concentrations, the % of cell cholesterol removed into the medium was about 25% higher with the FABACs as compared to the apolipoproteins. Note that the control efflux induced by the medium only is equal in both sets of experiments. The efflux at concentrations of 20 microgram/ml is problematic, since cell damage occurs at this concentration.

[2] = Aramchol plasma levels after single oral ascending doses in normal human volunteers; type: in vivo
Experimental: To 200 μL of each plasma sample, calibrator, and QC sample were added 20 μL of 2.5 μg/mL internal standard solution in 1:1 methanol:water followed by 50 μl, of 5% acetic acid and 2 mL of methyltertbutylether. The samples were mixed on a rotating shaker for 5 minutes and centrifuged. After centrifugation, the aqueous layer of the samples was frozen and the upper (organic) layer was transferred to evaporation tubes and evaporated to dryness under a gentle stream of N2 at ˜40° C. The samples were then reconstituted in 200 μL of 5:4:1 methanol:acetonitrile:20 mM ammonium acetate, mixed, and centrifuged. 100 μL of the clear upper solution was transferred to auto-sampler vials and analyzed by UPLC-MS/MS using a Waters Acquity UPLC BEH C18, 50×2.1 mm, 1.7μ column. A sample blank (blank plasma) and reagent blank (water) were also prepared, but without internal standard added (1:1 methanol:water added instead).
Normal human volunteers (n=12) ingested Aramchol in a formulation containing sodium lauryl sulfate and carboxy methyl cellulose, in a single dose containing 30, 100, 300, or 900 mg of Aramchol. Blood was sampled at 0, 1, 3, 4, 6, 9, 12, 18, 24, 36, 48, and 72 hours following ingestion. Aramchol blood levels were measured by a mass spectroscopy-based method (Goldiner et al., J Chromatogr B Analyt Technol Biomed Life Sci 2003; 795: 35-40). Aramchol plasma levels were measurable at all doses and were dose-proportional.

[3] = 14C-Aramchol radioactivity in the brain of rats after oral administration; type: in vivo, male Wistar rats; details: for Radioactivity in brain tissues: rat brain homogenate
Experimental: Male Wistar rats weighing 200-250 gm received a single gavage administration of ^14C-labeled-Aramchol (suspended in 0.3 ml saline), at a target dose level of 16 μCi/ml (40 μCi/kg). Aramchol is also known as “3beta-arachidyl amido, 7α,12α-dihydroxy-5-beta-cholan-24-oic acid” or “C-20 FABAC,” an amide conjugate (at position 3 of the bile acid) of arachidic and cholic acids. Groups of 3 animals were sacrificed following gavage, using ketamine anesthesia, at 3, 12, 24 or 72 hours.
Brain tissue samples were excised, homogenized in ice-cold 5M guanidine thiocyanate/HCl, pH 8, and rotated at room temperature for 4 h. Homogenates were stored at −80° C. Brain homogenates were diluted and centrifuged, and the ^14C-label was detected by mixing samples with scintillation fluid and reading in a liquid scintillation counter.

**Q.** For `CCCCCCCCCCCCCCCCCCCC(=O)N[C@H]1CC[C@@]2(C)[C@@H](C1)C[C@@H](O)[C@@H]1[C@@H]2C[C@H](O)[C@]2(C)[C@@H]([C@H](C)CCC(=O)O)CC[C@@H]12` [Aramchol, 3β-arachidylamido-7α,12α, dihydroxy 5β-cholan-24-oic acid], which “Cholesterol efflux at 2 μg/ml” value ([1]; 2 μg/ml, compared with 5-10 μg/ml) is on record?
**A.** Lower efflux levels

**Q.** And the “Cholesterol efflux at 20 μg/ml” value ([1]; 20 μg/ml, compared with 5-10 μg/ml)?
**A.** decrease in cholesterol efflux

**Q.** And the “Concentration evoking maximal cholesterol efflux” value [1]?
**A.** 5 microgram/ml

**Q.** What about the “Concentration of maximal effect on cholesterol efflux” value [1] of the same molecule?
**A.** 5 to 10 µg/mL

**Q.** What about the “Effect on cholesterol efflux” value ([1]; ccf-sttg1 cells, versus medium) of the same molecule?
**A.** increased cholesterol efflux

**Q.** What about the “Aramchol plasma level at 24 hr” value ([2]; 24 hr after a single ingestion, human) of the same molecule?
**A.** high Aramchol levels

**Q.** What about the “Aramchol plasma level at 36 hr” value ([2]; 36 hr after a single ingestion, human) of the same molecule?
**A.** substantial levels

**Q.** What about the “Time blood levels remain high” value ([2]; after a single administration, humans) of the same molecule?
**A.** over 24 hours

**Q.** What about the “Aramchol plasma levels versus dose” value ([2]; single oral dose 30-900 mg, human plasma) of the same molecule?
**A.** dose-proportional

**Q.** What about the “Radioactivity in brain tissues” value ([3]; 3 hr after single gavage of 14C-labeled Aramchol (40 μCi/kg)) of the same molecule?
**A.** 0.15 cpm/mg tissue

**Q.** What about the “Radioactivity in brain tissues” value ([3]; 12 hr after single gavage of 14C-labeled Aramchol (40 μCi/kg)) of the same molecule?
**A.** 0.32 cpm/mg/tissue

**Q.** And the “Time at which brain radioactivity disappeared” value ([3]; single gavage, rats)?
**A.** ~24 h

**Q.** And the “Time of peak radioactivity in brain” value ([3]; single gavage, rats)?
**A.** 12 h

**Q.** And the “Time radioactivity first detected in brain” value ([3]; single gavage, rats)?
**A.** 3 h

**Q.** Which “Concentration evoking maximal cholesterol efflux” value [1] does the source give for `CCCCCCCCCCCCCCCCCC(=O)N[C@H]1CC[C@@]2(C)[C@@H](C1)C[C@@H](O)[C@@H]1[C@@H]2C[C@H](O)[C@]2(C)[C@@H]([C@H](C)CCC(=O)O)CC[C@@H]12` [Steamchol, 3β-stearoylamido-7α,12α-dihydroxy-5β-cholan-24-oic acid] here?
**A.** 2 microgram/ml

**Q.** And the “Concentration of maximal effect on cholesterol efflux” value [1]?
**A.** 2 µg/mL

**Q.** What about the “Potency on cholesterol efflux relative to comparator” value ([1]; ccf-sttg1 cells) of the same molecule?
**A.** higher potency than Aramchol
